In US8835476B2, “Synthesis of novel antimicrobials” (priority 2005, dated 2014):
In brackets after ≈: the same amount, converted by molar mass. Like-named read-outs stand apart in the source and are kept apart here.

Legend:
Format in all cases: cell-based
[1] = tested on: C. koseril clinical isolates; assay: Broth microdilution MIC, clinical isolate strains (NAUTICA); conditions: clinical isolates, one table line per isolate; unit assumed
From the text: (§1) All clinical isolates tested were from The North American Urinary Tract Infection Collaborative Alliance (NAUTICA) which is a UTI surveillance study involving 40 medical centres (30 from the US and 10 from Canada). Each centre submitted up to 50 consecutive outpatient midstream urine isolates. All isolates were deemed significant urinary tract pathogens by individual laboratory criteria and identified to the species level by each laboratory's existing protocol. Isolates were transported to the coordinating laboratory (Health Sciences Centre, Winnipeg, Canada) on charcoal swabs. Only one isolate per patient was accepted. Upon receipt, isolates were cultured by the coordinating laboratory, stocked in skim milk, and stored at −80° C. awaiting reference antibiotic susceptibility testing. Elementary demographic information was also compiled for each isolate. Isolates were selected randomly from the above pool to represent 18 different species of Enterobacteriaceae and non-Enterobacteriaceae. An average of 5 strains of each species were tested for a total of 93 organisms. In addition, 23 reference (ATCC) [both gram negative and gram positive] strains were tested.
(§2) Susceptibilities to the compounds were determined using the National Committee for Clinical Laboratory Standards (NCCLS) M7-A6 broth microdilution method. […] DMSO controls were incorporated into the panel to mimic the quantity of DMSO used in dissolving some of the compounds at the higher concentrations. Each final panel well volume was 100 μl with a bacterial inoculum of 5×10^5 colony forming units (CFU)/ml. Panels were read following 16 to 20 hours of incubation at 35° C. in ambient air. The minimum inhibitory concentration (MIC) was defined as the lowest concentration of antimicrobial inhibiting visible growth. Quality control (QC) was performed using four ATCC QC organisms that were run with every batch set up to insure reproducibility.

[2] = tested on: S. marcescens clinical isolates; assay: as above; conditions: clinical isolates, one table line per isolate; unit assumed
From the text: as §1, §2

[3] = tested on: B. cepacia clinical isolates; assay: as above; conditions: clinical isolates, one table line per isolate; unit assumed
From the text: as §1, §2

[4] = tested on: M. morganii clinical isolates; assay: as above; conditions: clinical isolates, one table line per isolate; unit assumed
From the text: as §1, §2

[5] = tested on: A. baumanii clinical isolates; assay: as above; conditions: clinical isolates, one table line per isolate; unit assumed
From the text: as §1, §2

[6] = tested on: S. maltophilia clinical isolates; assay: as above; conditions: clinical isolates, one table line per isolate; unit assumed
From the text: as §1, §2

[7] = tested on: E. aerogenes clinical isolates; assay: as above; conditions: clinical isolates, one table line per isolate; unit assumed
From the text: as §1, §2

[8] = tested on: S. liquifaciens clinical isolates; assay: as above; conditions: clinical isolates, one table line per isolate; unit assumed
From the text: as §1, §2

[9] = tested on: S. liquefaciens ATCC 27592; assay: Broth microdilution MIC, ATCC strains; conditions: S. liquefaciens ATCC 27592; read-out: MIC (growth inhibition, microdilution method)
From the text: as §1, §2

[10] = tested on: K. oxytoca ATCC 49131; assay: Broth microdilution MIC, ATCC strains; conditions: Klebsiella oxytoca, ATCC49131; K. oxytoca ATCC 49131; read-out: MIC (growth inhibition, microdilution method)
From the text: as §1, §2

[11] = tested on: A. anitratus ATCC 19606; assay: Broth microdilution MIC, ATCC strains; conditions: Acinetobacter calcoaceticus, ATCC19606; A. anitratus ATCC 19606; read-out: MIC (growth inhibition, microdilution method)
From the text: as §1, §2

[12] = tested on: S. epidermidis ATCC 14990; assay: Broth microdilution MIC, ATCC strains; conditions: Staphylococcus epidermidis, ATCC14990; S. epidermidis ATCC 14990; read-out: MIC (growth inhibition, microdilution method)
From the text: as §1, §2

[13] = tested on: E. cloacae ATCC 23355; assay: Broth microdilution MIC, ATCC strains; conditions: Enterobacter cloacae, ATCC23355; E. cloacae ATCC 23355; read-out: MIC (growth inhibition, microdilution method)
From the text: as §1, §2

[14] = tested on: MRSA ATCC 33591; assay: Broth microdilution MIC, ATCC strains; conditions: Staphylococcus aureus; MRSA ATCC 33591; read-out: MIC (growth inhibition, microdilution method)
From the text: as §1, §2

[15] = tested on: E. faecium ATCC 35667; assay: Broth microdilution MIC, ATCC strains; conditions: Enterococcus faecium, ATCC35667, read-out: MIC (growth inhibition, microdilution method)
From the text: as §1, §2

[16] = tested on: S. simulans ATCC 27848; assay: Broth microdilution MIC, ATCC strains; conditions: Staphylococcus simulans, ATCC27848, read-out: MIC (growth inhibition, microdilution method)
From the text: as §1, §2

[17] = tested on: S. warneri ATCC 27836; assay: Broth microdilution MIC, ATCC strains; conditions: Staphylococcus warneri, ATCC27836; S. warneri ATCC 27836; read-out: MIC (growth inhibition, microdilution method)
From the text: as §1, §2

[18] = tested on: E. faecalis ATCC 29212; assay: Broth microdilution MIC, ATCC strains; conditions: Enterococcus faecalis, read-out: MIC (growth inhibition, microdilution method)
From the text: as §1, §2

[19] = tested on: Pr. stuartii ATCC 33672; assay: Broth microdilution MIC, ATCC strains; conditions: Providencia stuartii, ATCC33672; Pr. stuartii ATCC 33672; read-out: MIC (growth inhibition, microdilution method)
From the text: as §1, §2

[20] = tested on: S. aureus ATCC 29213; assay: Broth microdilution MIC, ATCC strains; conditions: Staphylococcus aureus, ATCC29213, S. aureus ATCC 29213; read-out: MIC (growth inhibition, microdilution method)
From the text: as §1, §2

[21] = tested on: Ps. aeruginosa ATCC 27853; assay: Broth microdilution MIC, ATCC strains; conditions: Pseudomonas aeruginosa, ATCC27853; Ps. aeruginosa ATCC 27853; read-out: MIC (growth inhibition, microdilution method)
From the text: as §1, §2

[22] = tested on: K. pneumoniae ATCC 13883; assay: Broth microdilution MIC, ATCC strains; conditions: Klebsiella pneumoniae, ATCC13883; K. pneumoniae ATCC 13883; read-out: MIC (growth inhibition, microdilution method)
From the text: as §1, §2

[23] = tested on: P. mirabilis ATCC 29245; assay: Broth microdilution MIC, ATCC strains; conditions: Proteus mirabilis, ATCC29245; P. mirabilis ATCC 29245; read-out: MIC (growth inhibition, microdilution method)
From the text: as §1, §2

[24] = tested on: S. maltophilia ATCC 13637; assay: Broth microdilution MIC, ATCC strains; conditions: Stenotrophomonas maltophilia, ATCC13637; S. maltophilia ATCC 13637; read-out: MIC (growth inhibition, microdilution method)
From the text: as §1, §2

[25] = tested on: S. marcescens ATCC 8100; assay: Broth microdilution MIC, ATCC strains; conditions: Serratia marcescens, ATCC8100; S. marcescens ATCC 8100; read-out: MIC (growth inhibition, microdilution method)
From the text: as §1, §2

[26] = tested on: B. cepacia ATCC 25416; assay: Broth microdilution MIC, ATCC strains; conditions: Burkholderia cepacia, ATCC25416; B. cepacia ATCC 25416; read-out: MIC (growth inhibition, microdilution method)
From the text: as §1, §2

[27] = tested on: E. aerogenes ATCC 13048; assay: Broth microdilution MIC, ATCC strains; conditions: Klebsiella aerogenes, ATCC13048; E. aerogenes ATCC 13048; read-out: MIC (growth inhibition, microdilution method)
From the text: as §1, §2

[28] = tested on: E. coli ATCC 25922; assay: Broth microdilution MIC, ATCC strains; conditions: Escherichia coli, ATCC25922, E. coli ATCC 25922; read-out: MIC (growth inhibition, microdilution method)
From the text: as §1, §2

[29] = tested on: P. vulgaris ATCC 49132; assay: Broth microdilution MIC, ATCC strains; conditions: Proteus vulgaris, ATCC49132; P. vulgaris ATCC 49132; read-out: MIC (growth inhibition, microdilution method)
From the text: as §1, §2

[30] = tested on: S. saprophyticus ATCC 15305; assay: Broth microdilution MIC, ATCC strains; conditions: Staphylococcus saprophyticus, ATCC15305; S. saprophyticus ATCC 15305; read-out: MIC (growth inhibition, microdilution method)
From the text: as §1, §2

[31] = tested on: P. rettgeri CAP; assay: Broth microdilution MIC, reference strains; conditions: Providencia rettgeri; P. rettgeri (CAP in Table 1); read-out: MIC (growth inhibition, microdilution method)
From the text: as §1, §2

[32] = tested on: E. cloacae clinical isolates; assay: Broth microdilution MIC, clinical isolate strains (NAUTICA); conditions: clinical isolates, one table line per isolate; unit assumed
From the text: as §1, §2

[33] = ATCC29212, E. faecalis ATCC 29212
[34] = ATCC29212, E. faecalis, ATCC number not given

Q: Which results are given for `Cn1nnnc1-c1cc(C(=O)O)sc1C(=O)O` [DNM-113, 3-(1-Methyl-1H-tetrazol-5-yl)-thiophene-2,5-dicarboxylic acid]?
A: MIC, C. KOSERI [1]: 8 µg/mL (≈ 31.5 µM); MIC, S. MARCESCENS [2]: 8 µg/mL (≈ 31.5 µM); MIC, B. CEPACIA [3]: 8 µg/mL (≈ 31.5 µM); MIC, M. MORGANII [4]: 8 µg/mL (≈ 31.5 µM); MIC, A. BAUMANII [5]: 8 µg/mL (≈ 31.5 µM); MIC, S. MALTOPHILIA [6]: 8 µg/mL (≈ 31.5 µM); MIC, E. AEROGENES [7]: 8 µg/mL (≈ 31.5 µM); MIC, S. LIQUEFACIENS [8]: 8 µg/mL (≈ 31.5 µM); MIC [9]: 8 µg/mL (≈ 31.5 µM); MIC [10]: 8 µg/mL (≈ 31.5 µM); MIC [11]: 8 µg/mL (≈ 31.5 µM); MIC [12]: 8 µg/mL (≈ 31.5 µM); MIC [13]: 8 µg/mL (≈ 31.5 µM); MIC [14]: 64 µg/mL (≈ 252 µM); MIC [15]: 8 µg/mL (≈ 31.5 µM); MIC [16]: 32 µg/mL (≈ 126 µM); MIC [17]: 16 µg/mL (≈ 62.9 µM); MIC [18, 33]: 8 µg/mL (≈ 31.5 µM); MIC [18, 34]: 8 µg/mL (≈ 31.5 µM); MIC [19]: 16 µg/mL (≈ 62.9 µM); MIC [20]: 32 µg/mL (≈ 126 µM); MIC [21]: 8 µg/mL (≈ 31.5 µM); MIC [22]: 8 µg/mL (≈ 31.5 µM); MIC [23]: 16 µg/mL (≈ 62.9 µM); MIC [24]: 8 µg/mL (≈ 31.5 µM); MIC [25]: 8 µg/mL (≈ 31.5 µM); MIC [26]: 8 µg/mL (≈ 31.5 µM); MIC [27]: 8 µg/mL (≈ 31.5 µM); MIC [28]: 8 µg/mL (≈ 31.5 µM); MIC [29]: 16 µg/mL (≈ 62.9 µM); MIC [30]: 8 µg/mL (≈ 31.5 µM); MIC [31]: 8 µg/mL (≈ 31.5 µM)

Q: `COC(=O)c1cc(-c2nnnn2C)c(C(=O)OC)s1` [DNM-115, 3-(1-Methyl-1H-tetrazol-5-yl)-thiophene-2,5-dicarboxylic acid dimethyl ester] was tested. Which MIC, E. CLOACAE [32] did it give?
A: > 16 µg/mL

Q: What about the MIC, B. CEPACIA [3] of the same compound?
A: 8 µg/mL (≈ 28.3 µM)

Q: What about the MIC, A. BAUMANII [5] of the same compound?
A: 8 µg/mL (≈ 28.3 µM)

Q: And the MIC, S. MALTOPHILIA [6]?
A: 8 µg/mL (≈ 28.3 µM)

Q: What about the MIC [9] of the same compound?
A: 8 µg/mL (≈ 28.3 µM)

Q: And the MIC [10]?
A: 8 µg/mL (≈ 28.3 µM)

Q: And the MIC [11]?
A: 8 µg/mL (≈ 28.3 µM)

Q: And the MIC [12]?
A: 8 µg/mL (≈ 28.3 µM)

Q: What about the MIC [13] of the same compound?
A: > 16 µg/mL

Q: What about the MIC [14] of the same compound?
A: > 16 µg/mL

Q: And the MIC [15]?
A: 8 µg/mL (≈ 28.3 µM)

Q: And the MIC [16]?
A: > 16 µg/mL

Q: And the MIC [17]?
A: > 16 µg/mL

Q: And the MIC [18, 33]?
A: 8 µg/mL (≈ 28.3 µM)

Q: And the MIC [18, 34]?
A: 8 µg/mL (≈ 28.3 µM)

Q: What about the MIC [19] of the same compound?
A: > 16 µg/mL

Q: What about the MIC [20] of the same compound?
A: > 16 µg/mL

Q: What about the MIC [21] of the same compound?
A: 8 µg/mL (≈ 28.3 µM)

Q: And the MIC [22]?
A: 8 µg/mL (≈ 28.3 µM)

Q: What about the MIC [23] of the same compound?
A: 16 µg/mL (≈ 56.7 µM)

Q: What about the MIC [24] of the same compound?
A: 8 µg/mL (≈ 28.3 µM)

Q: What about the MIC [25] of the same compound?
A: 8 µg/mL (≈ 28.3 µM)

Q: What about the MIC [26] of the same compound?
A: 8 µg/mL (≈ 28.3 µM)

Q: And the MIC [27]?
A: 8 µg/mL (≈ 28.3 µM)

Q: And the MIC [28]?
A: 8 µg/mL (≈ 28.3 µM)

Q: And the MIC [29]?
A: 16 µg/mL (≈ 56.7 µM)

Q: And the MIC [30]?
A: 8 µg/mL (≈ 28.3 µM)

Q: What about the MIC [31] of the same compound?
A: 16 µg/mL (≈ 56.7 µM)
